Test results: patent US10597388B2, “Pyridazinone herbicides” (FMC CORPORATION, priority 2014, dated 2020)

Tests used:
Type in all cases: in vivo
[1] = system: barnyardgrass (Echinochloa crus-galli); assay: Test A greenhouse herbicide test, pre- and postemergence
Text: (§1) Seeds of plant species selected from barnyardgrass (Echinochloa crus-galli), kochia (Kochia scoparia), ragweed (common ragweed, Ambrosia elatior), ryegrass, Italian (Italian ryegrass, Lolium multiflorum), crabgrass, large (large crabgrass, Digitaria sanguinalis), foxtail, giant (giant foxtail, Setaria faberii), momingglory (Ipomoea spp.), pigweed (Amaranthus retroflexus), velvetleaf (Abutilon theophrasti), wheat (Triticum aestivum), and corn (Zea mays) were planted into a blend of loam soil and sand and treated preemergence with a directed soil spray using test chemicals formulated in a non-phytotoxic solvent mixture which included a surfactant.
(§2) At the same time, plants selected from these crop and weed species and also blackgrass (Alopecurus myosuroides), and galium (catchweed bedstraw, Galium aparine) were planted in pots containing the same blend of loam soil and sand and treated with postemergence applications of test chemicals formulated in the same manner. Plants ranged in height from 2 to 10 cm and were in the one- to two-leaf stage for the postemergence treatment. Treated plants and untreated controls were maintained in a greenhouse for approximately 10 d, after which time all treated plants were compared to untreated controls and visually evaluated for injury. Plant response ratings, summarized in Table A, are based on a 0 to 100 scale where 0 is no effect and 100 is complete control. A dash (-) response means no test result.

[2] = system: corn (Zea mays); assay: as above; settings: Postemergence; for Plant response rating, Corn: 125 g ai/ha; for Corn plant response rating: 500 g ai/ha, 0 to 100 scale, 0 is no effect, 100 is complete control
Text: as §1, §2

[3] = system: foxtail, giant (giant foxtail, Setaria faberii); assay: as above
Text: as §1, §2

[4] = system: kochia (Kochia scoparia); assay: as above
Text: as §1, §2

[5] = system: pigweed (Amaranthus retroflexus); assay: as above
Text: as §1, §2

[6] = system: ragweed (common ragweed, Ambrosia elatior); assay: as above
Text: as §1, §2

[7] = system: ryegrass, Italian (Italian ryegrass, Lolium multiflorum); assay: as above
Text: as §1, §2

[8] = system: wheat (Triticum aestivum); assay: as above; settings: Postemergence; for Plant response rating, Wheat: 125 g ai/ha, 0 to 100 scale where 0 is no effect and 100 is complete control; for Wheat plant response rating: 500 g ai/ha, 0 to 100 scale, 0 is no effect, 100 is complete control
Text: as §1, §2

[9] = system: blackgrass (Alopecurus myosuroides); assay: Test A greenhouse herbicide test, postemergence; settings: for Plant response rating, Blackgrass: 125 g ai/ha; for Blackgrass plant response rating: 500 g ai/ha, 0 to 100 scale, 0 is no effect, 100 is complete control
Text: as §2

[10] = system: galium (catchweed bedstraw, Galium aparine); assay: Test A greenhouse herbicide test, postemergence; settings: for Plant response rating, Galium: 125 g ai/ha; for Galium plant response rating: 500 g ai/ha, 0 to 100 scale, 0 is no effect, 100 is complete control
Text: as §2

[11] = Postemergence, 125 g ai/ha, visual rating after approx. 10 d, 0 to 100 scale (0 no effect, 100 complete control)
[12] = Postemergence, 500 g ai/ha, 0 to 100 scale, 0 is no effect, 100 is complete control
[13] = Preemergence, 125 g ai/ha, 0 to 100 scale where 0 is no effect and 100 is complete control
[14] = Preemergence, 500 g ai/ha, 0 to 100 scale, 0 no effect, 100 complete control
[15] = visual rating after approx. 10 d, 0 to 100 scale (0 no effect, 100 complete control)
[16] = Postemergence, 125 g ai/ha, 0 to 100 scale where 0 is no effect and 100 is complete control
[17] = 0 to 100 scale where 0 is no effect and 100 is complete control
[18] = Preemergence, 500 g ai/ha, 0 to 100 scale where 0 is no effect and 100 is complete control

| Structure (SMILES) | Barnyardgrass plant response rating [1, 12] | Barnyardgrass plant response rating [1, 13] | Plant response rating, Barnyardgrass [1, 14] | Corn plant response rating [2] | Foxtail, Giant plant response rating [3, 12] | Foxtail, Giant plant response rating [3, 13] | Plant response rating, Foxtail, Giant [3, 14] | Kochia plant response rating [4, 12] | Kochia plant response rating [4, 13] | Pigweed plant response rating [5, 12] | Pigweed plant response rating [5, 13] | Ragweed plant response rating [6, 12] | Ragweed plant response rating [6, 13] | Plant response rating, Ryegrass, Italian [7, 16] | Ryegrass, Italian plant response rating [7, 12] | Ryegrass, Italian plant response rating [7, 13] | Plant response rating, Wheat [8] | Wheat plant response rating [8] | Blackgrass plant response rating [9] | Galium plant response rating [10] | other results |
| --- | --- | --- | --- | --- | --- | --- | --- | --- | --- | --- | --- | --- | --- | --- | --- | --- | --- | --- | --- | --- | --- |
| COc1nn(C)c(=O)c(-c2c(C)ccc3ccc(C)cc23)c1O [Compound 30] | 30 | 0 | 10 | 0 | 60 | 0 | 60 | 80 | 0 | 90 | 80 | 70 | 0 | 70 | 60 | 30 | 10 | 10 | 60 | 90 | Plant response rating, Barnyardgrass [1, 11]: 0; Plant response rating, Corn [2, 15]: 0; Plant response rating, Foxtail, Giant [3, 11]: 0; Plant response rating, Kochia [4, 11]: 60; Plant response rating, Kochia [4, 14]: 40; Plant response rating, Pigweed [5, 11]: 90; Plant response rating, Pigweed [5, 14]: 90; Plant response rating, Ragweed [6, 11]: 40; Plant response rating, Ragweed [6, 14]: 70; Plant response rating, Ryegrass, Italian [7, 14]: 50; Plant response rating, Blackgrass [9, 15]: 20; Plant response rating, Galium [10, 15]: 70 |
| CCc1ccc2ccccc2c1-c1c(OC(=O)C2CC2)c(C)nn(C)c1=O [Compound 38] | 40 | 0 | 10 | 10 | 50 | 0 | 40 | 80 | 40 | 50 | 0 | 70 | 0 | 0 | 50 | 40 | 10 | 20 | 60 | 100 | Plant response rating, Barnyardgrass [1, 11]: 0; Plant response rating, Corn [2, 15]: 0; Plant response rating, Foxtail, Giant [3, 11]: 0; Plant response rating, Kochia [4, 11]: 30; Plant response rating, Kochia [4, 14]: 40; Plant response rating, Pigweed [5, 11]: 50; Plant response rating, Pigweed [5, 14]: 80; Plant response rating, Ragweed [6, 11]: 40; Plant response rating, Ragweed [6, 14]: 70; Plant response rating, Ryegrass, Italian [7, 14]: 70; Plant response rating, Blackgrass [9, 15]: 50; Plant response rating, Galium [10, 15]: 80 |
| Cc1ccc2oc(C)c(-c3c(O)c(-c4ccccc4)nn(C)c3=O)c2c1 [Compound 61] | 0 | 0 | 0 | 0 | 0 | 0 | 0 | 0 | 0 | 0 | 0 | 0 | 0 | 0 | 0 | 0 | 0 | 0 | 0 | 0 | Plant response rating, Barnyardgrass [1, 16]: 0; Plant response rating, Corn [2, 17]: 0; Plant response rating, Foxtail, Giant [3, 16]: 0; Plant response rating, Kochia [4, 16]: 0; Plant response rating, Kochia [4, 14]: 0; Plant response rating, Pigweed [5, 16]: 0; Plant response rating, Pigweed [5, 14]: 0; Plant response rating, Ragweed [6, 16]: 0; Plant response rating, Ragweed [6, 14]: 0; Plant response rating, Ryegrass, Italian [7, 14]: 0; Plant response rating, Blackgrass [9, 17]: 0; Plant response rating, Galium [10, 17]: 0 |
| CCc1nn(CC)c(=O)c(-c2c(C)oc3ccc(C)cc23)c1O [Compound 64] | 0 | 0 | 0 | 0 | 0 | 0 | 0 | 0 | 0 | 0 | 0 | 0 | 0 | 0 | 0 | 0 | 0 | 0 | 0 | 0 | Plant response rating, Barnyardgrass [1, 16]: 0; Plant response rating, Corn [2, 17]: 0; Plant response rating, Foxtail, Giant [3, 16]: 0; Plant response rating, Kochia [4, 16]: 0; Plant response rating, Kochia [4, 14]: 0; Plant response rating, Pigweed [5, 16]: 0; Plant response rating, Pigweed [5, 14]: 0; Plant response rating, Ragweed [6, 16]: 0; Plant response rating, Ragweed [6, 14]: 0; Plant response rating, Ryegrass, Italian [7, 14]: 0; Plant response rating, Blackgrass [9, 17]: 0; Plant response rating, Galium [10, 17]: 0 |
| Cc1nn(C)c(=O)c(-c2cccc3ccc(I)cc23)c1O [Compound 70] | 10 | 0 | 30 | 0 | 25 | 0 | – | 60 | 10 | 80 | 60 | 70 | 70 | 60 | 80 | 60 | 0 | 0 | 30 | 90 | Plant response rating, Barnyardgrass [1, 16]: 0; Plant response rating, Corn [2, 17]: 0; Plant response rating, Foxtail, Giant [3, 16]: 30; Plant response rating, Foxtail, Giant [3, 18]: 30; Plant response rating, Kochia [4, 16]: 50; Plant response rating, Kochia [4, 18]: 40; Plant response rating, Pigweed [5, 16]: 80; Plant response rating, Pigweed [5, 18]: 100; Plant response rating, Ragweed [6, 16]: 40; Plant response rating, Ragweed [6, 18]: 80; Plant response rating, Ryegrass, Italian [7, 18]: 90; Plant response rating, Blackgrass [9, 17]: 10; Plant response rating, Galium [10, 17]: 70 |
| Cc1nn(C)c(=O)c(-c2cccc3ccc(C4CC4)cc23)c1O [Compound 71] | 20 | 0 | 20 | 20 | 20 | 0 | – | 70 | 0 | 80 | 30 | 70 | 0 | 30 | 90 | 0 | 0 | 20 | 40 | 90 | Plant response rating, Barnyardgrass [1, 16]: 0; Plant response rating, Corn [2, 17]: 0; Plant response rating, Foxtail, Giant [3, 16]: 0; Plant response rating, Foxtail, Giant [3, 18]: 50; Plant response rating, Kochia [4, 16]: 50; Plant response rating, Kochia [4, 18]: 20; Plant response rating, Pigweed [5, 16]: 70; Plant response rating, Pigweed [5, 18]: 100; Plant response rating, Ragweed [6, 16]: 70; Plant response rating, Ragweed [6, 18]: 20; Plant response rating, Ryegrass, Italian [7, 18]: 70; Plant response rating, Blackgrass [9, 17]: 30; Plant response rating, Galium [10, 17]: 70 |
